Key:
[1] = Affinity towards cloned Nicotinic acetylcholine receptor
[2] = target: D(1A) dopamine receptor (Homo sapiens, UniProt P21728); experiment: Affinity towards cloned Dopamine receptor D1
[3] = target: D(2) dopamine receptor (Homo sapiens, UniProt P14416); experiment: Affinity towards cloned Dopamine receptor D2
[4] = target: 5-hydroxytryptamine receptor 7 (Homo sapiens, UniProt P34969); experiment: In vitro binding affinity towards cloned human 5-HT7 receptor using [3H]5-carboximidotryptamine as radioligand
Sequence of 5-hydroxytryptamine receptor 7 (P34969 whole entry): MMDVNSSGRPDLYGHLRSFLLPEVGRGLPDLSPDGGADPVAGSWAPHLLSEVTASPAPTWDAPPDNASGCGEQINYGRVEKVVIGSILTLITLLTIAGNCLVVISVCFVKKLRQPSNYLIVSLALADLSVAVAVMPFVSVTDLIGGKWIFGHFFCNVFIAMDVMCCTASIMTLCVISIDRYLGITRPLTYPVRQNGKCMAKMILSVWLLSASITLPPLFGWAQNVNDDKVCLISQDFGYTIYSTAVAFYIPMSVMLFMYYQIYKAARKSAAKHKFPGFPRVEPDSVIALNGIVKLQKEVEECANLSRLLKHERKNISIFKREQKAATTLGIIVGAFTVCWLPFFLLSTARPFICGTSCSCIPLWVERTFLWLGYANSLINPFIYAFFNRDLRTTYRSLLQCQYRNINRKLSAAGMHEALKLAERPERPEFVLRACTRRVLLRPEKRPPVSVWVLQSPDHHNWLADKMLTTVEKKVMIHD

[5] = target: Mu-type opioid receptor (Homo sapiens, UniProt P35372); experiment: Affinity towards cloned Opioid receptor mu 1
Sequence of Mu-type opioid receptor (P35372 whole entry): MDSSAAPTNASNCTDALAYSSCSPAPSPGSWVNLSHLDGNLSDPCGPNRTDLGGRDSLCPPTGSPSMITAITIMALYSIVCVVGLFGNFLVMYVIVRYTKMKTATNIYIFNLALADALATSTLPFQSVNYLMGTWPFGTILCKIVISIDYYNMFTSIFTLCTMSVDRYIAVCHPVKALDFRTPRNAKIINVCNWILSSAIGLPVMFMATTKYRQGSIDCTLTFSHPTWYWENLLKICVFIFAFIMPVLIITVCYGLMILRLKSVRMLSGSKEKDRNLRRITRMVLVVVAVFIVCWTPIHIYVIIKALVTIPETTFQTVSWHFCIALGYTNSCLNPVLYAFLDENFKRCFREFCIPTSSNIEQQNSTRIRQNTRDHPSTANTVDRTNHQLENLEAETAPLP

[6] = target: Delta-type opioid receptor (Homo sapiens, UniProt P41143); experiment: Affinity towards cloned Opioid receptor delta 1
Sequence of Delta-type opioid receptor (P41143 whole entry): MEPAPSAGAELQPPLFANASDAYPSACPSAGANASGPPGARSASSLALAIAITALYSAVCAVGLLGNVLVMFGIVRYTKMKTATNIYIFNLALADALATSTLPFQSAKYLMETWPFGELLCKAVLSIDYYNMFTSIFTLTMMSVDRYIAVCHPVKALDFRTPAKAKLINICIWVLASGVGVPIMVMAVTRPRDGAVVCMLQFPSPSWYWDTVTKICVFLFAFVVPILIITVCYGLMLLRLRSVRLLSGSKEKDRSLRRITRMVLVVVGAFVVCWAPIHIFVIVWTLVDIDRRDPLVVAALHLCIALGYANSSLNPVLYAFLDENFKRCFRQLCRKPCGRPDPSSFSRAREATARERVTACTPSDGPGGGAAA

[7] = target: D(3) dopamine receptor (Homo sapiens, UniProt P35462); experiment: Affinity towards cloned Dopamine receptor D3
[8] = target: T1, Muscarinic acetylcholine receptor M2 (Homo sapiens, UniProt P08172); experiment: Affinity towards cloned Muscarinic acetylcholine receptor M2
T1 sequence (P08172 whole entry): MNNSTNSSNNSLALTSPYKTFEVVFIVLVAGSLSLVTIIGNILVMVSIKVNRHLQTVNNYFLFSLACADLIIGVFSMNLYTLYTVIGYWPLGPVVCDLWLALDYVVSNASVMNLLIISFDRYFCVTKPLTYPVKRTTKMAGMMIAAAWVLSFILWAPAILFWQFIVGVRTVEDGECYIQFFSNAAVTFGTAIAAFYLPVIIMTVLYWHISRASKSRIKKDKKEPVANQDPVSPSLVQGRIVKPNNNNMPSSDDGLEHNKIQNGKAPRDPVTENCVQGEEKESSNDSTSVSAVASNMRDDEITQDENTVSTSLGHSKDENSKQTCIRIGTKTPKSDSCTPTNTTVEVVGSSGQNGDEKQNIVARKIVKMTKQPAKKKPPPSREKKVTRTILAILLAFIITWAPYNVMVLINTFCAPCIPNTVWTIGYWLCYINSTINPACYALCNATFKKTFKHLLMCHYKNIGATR

[9] = target: 5-hydroxytryptamine receptor 2A (Homo sapiens, UniProt P28223); experiment: In vitro binding affinity towards cloned human 5-HT2A receptor using [3H]5-carboximidotryptamine as radioligand
Sequence of 5-hydroxytryptamine receptor 2A (P28223 whole entry): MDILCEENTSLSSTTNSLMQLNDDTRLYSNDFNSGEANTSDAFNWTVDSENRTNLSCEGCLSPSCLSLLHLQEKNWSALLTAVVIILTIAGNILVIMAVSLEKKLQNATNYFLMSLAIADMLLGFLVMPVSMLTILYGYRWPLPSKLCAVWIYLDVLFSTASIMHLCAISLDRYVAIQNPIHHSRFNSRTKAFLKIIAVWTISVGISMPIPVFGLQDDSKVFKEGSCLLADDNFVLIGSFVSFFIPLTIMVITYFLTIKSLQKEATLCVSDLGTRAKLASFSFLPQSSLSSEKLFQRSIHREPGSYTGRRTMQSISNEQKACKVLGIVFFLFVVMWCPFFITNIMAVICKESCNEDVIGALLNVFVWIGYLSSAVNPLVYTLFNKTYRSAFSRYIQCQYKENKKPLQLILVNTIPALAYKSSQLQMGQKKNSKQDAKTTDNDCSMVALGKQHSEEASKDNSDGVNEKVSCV

[10] = target: D(1B) dopamine receptor (Homo sapiens, UniProt P21918); experiment: Affinity towards cloned Dopamine receptor D5
Sequence of D(1B) dopamine receptor (P21918 whole entry): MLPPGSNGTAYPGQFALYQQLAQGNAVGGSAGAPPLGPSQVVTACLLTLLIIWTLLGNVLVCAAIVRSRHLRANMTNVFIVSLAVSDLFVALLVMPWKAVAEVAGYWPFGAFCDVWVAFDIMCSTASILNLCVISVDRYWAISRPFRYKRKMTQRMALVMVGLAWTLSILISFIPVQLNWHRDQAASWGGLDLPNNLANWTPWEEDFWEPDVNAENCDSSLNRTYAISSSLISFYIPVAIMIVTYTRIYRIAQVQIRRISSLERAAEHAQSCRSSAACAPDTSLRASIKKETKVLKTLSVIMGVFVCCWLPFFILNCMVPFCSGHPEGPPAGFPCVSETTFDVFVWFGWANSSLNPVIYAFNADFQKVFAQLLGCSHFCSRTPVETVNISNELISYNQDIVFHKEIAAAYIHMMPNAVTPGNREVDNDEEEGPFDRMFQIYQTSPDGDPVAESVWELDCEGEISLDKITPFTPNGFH

[11] = target: 5-hydroxytryptamine receptor 1B (Homo sapiens, UniProt P28222); experiment: In vitro binding affinity towards cloned human 5-HT1B receptor using [3H]5-carboximidotryptamine as radioligand
Sequence of 5-hydroxytryptamine receptor 1B (P28222 whole entry): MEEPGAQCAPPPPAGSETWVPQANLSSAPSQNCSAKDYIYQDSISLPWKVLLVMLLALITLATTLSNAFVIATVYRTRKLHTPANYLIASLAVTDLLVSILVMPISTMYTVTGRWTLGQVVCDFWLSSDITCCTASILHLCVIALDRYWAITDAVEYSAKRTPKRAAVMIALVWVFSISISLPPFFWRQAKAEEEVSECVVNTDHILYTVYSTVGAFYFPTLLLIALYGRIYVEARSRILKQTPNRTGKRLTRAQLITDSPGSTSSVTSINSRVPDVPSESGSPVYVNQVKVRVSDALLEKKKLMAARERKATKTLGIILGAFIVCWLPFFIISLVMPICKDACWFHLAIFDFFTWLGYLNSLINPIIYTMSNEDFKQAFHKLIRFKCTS

[12] = target: T2, Muscarinic acetylcholine receptor M5 (Homo sapiens, UniProt P08912); experiment: Affinity towards cloned Muscarinic acetylcholine receptor M5
T2 sequence (P08912 whole entry): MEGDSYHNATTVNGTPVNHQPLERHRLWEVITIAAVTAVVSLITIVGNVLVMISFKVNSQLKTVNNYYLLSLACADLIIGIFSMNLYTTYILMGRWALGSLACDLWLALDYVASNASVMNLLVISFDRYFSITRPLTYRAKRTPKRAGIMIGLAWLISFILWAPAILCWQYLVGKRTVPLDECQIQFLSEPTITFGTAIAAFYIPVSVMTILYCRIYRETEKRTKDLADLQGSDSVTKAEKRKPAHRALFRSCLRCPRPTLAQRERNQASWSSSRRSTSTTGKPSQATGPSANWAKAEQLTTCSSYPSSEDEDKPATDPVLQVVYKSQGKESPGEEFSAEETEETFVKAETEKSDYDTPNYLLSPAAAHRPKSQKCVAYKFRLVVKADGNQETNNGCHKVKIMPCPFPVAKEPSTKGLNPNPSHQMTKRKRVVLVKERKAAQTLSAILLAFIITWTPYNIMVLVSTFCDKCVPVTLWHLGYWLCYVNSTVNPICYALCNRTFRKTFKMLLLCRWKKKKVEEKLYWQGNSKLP

[13] = target: T3, Muscarinic acetylcholine receptor M1 (Homo sapiens, UniProt P11229); experiment: Affinity towards cloned Muscarinic acetylcholine receptor M1
T3 sequence (P11229 whole entry): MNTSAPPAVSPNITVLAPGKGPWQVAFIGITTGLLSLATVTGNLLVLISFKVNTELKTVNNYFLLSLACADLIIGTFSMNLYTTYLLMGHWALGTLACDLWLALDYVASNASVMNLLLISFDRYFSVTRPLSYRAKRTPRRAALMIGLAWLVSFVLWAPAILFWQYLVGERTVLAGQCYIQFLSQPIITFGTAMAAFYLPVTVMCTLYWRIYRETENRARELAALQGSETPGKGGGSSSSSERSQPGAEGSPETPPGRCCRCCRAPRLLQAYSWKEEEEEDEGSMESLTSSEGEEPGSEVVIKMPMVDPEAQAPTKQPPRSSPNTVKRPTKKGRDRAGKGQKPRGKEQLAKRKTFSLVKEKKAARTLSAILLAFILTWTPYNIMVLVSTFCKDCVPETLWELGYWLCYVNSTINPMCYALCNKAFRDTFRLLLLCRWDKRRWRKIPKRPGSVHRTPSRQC

[14] = target: 5-hydroxytryptamine receptor 6 (Homo sapiens, UniProt P50406); experiment: In vitro binding affinity towards cloned human 5-HT6 receptor using [3H]5-carboximidotryptamine as radioligand
[15] = target: Muscarinic acetylcholine receptor M3 (Homo sapiens, UniProt P20309); experiment: Affinity towards cloned Muscarinic acetylcholine receptor M3
[16] = target: 5-hydroxytryptamine receptor 1D (Homo sapiens, UniProt P28221); experiment: In vitro binding affinity towards cloned human 5-HT1D receptor using [3H]5-carboximidotryptamine as radioligand
Sequence of 5-hydroxytryptamine receptor 1D (P28221 whole entry): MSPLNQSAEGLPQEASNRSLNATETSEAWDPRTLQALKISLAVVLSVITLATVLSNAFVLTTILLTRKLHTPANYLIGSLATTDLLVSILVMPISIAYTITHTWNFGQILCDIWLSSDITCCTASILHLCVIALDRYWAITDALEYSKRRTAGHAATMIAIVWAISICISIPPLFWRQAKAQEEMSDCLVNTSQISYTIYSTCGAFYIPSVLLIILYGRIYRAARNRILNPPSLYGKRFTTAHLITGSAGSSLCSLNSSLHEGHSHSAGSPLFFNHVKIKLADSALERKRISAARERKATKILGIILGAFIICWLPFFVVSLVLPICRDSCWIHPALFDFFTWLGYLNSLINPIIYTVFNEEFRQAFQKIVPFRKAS

[17] = target: T4, 5-hydroxytryptamine receptor 2C (Homo sapiens, UniProt P28335); experiment: In vitro binding affinity towards cloned human 5-HT2C receptor using [3H]5-carboximidotryptamine as radioligand
T4 sequence (P28335 whole entry): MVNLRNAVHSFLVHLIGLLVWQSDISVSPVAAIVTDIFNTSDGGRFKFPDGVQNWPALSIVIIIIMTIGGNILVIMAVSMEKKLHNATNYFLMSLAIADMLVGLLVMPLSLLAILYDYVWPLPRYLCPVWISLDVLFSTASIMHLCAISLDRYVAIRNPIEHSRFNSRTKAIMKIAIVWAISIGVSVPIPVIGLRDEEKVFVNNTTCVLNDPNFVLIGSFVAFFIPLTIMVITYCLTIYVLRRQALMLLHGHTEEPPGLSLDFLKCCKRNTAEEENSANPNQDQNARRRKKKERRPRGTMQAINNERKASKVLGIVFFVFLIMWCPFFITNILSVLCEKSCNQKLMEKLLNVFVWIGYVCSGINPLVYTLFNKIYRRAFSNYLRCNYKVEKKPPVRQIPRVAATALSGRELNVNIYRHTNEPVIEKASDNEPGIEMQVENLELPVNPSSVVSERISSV

[18] = target: T5, Muscarinic acetylcholine receptor M4 (Homo sapiens, UniProt P08173); experiment: Affinity towards cloned Muscarinic acetylcholine receptor M4
T5 sequence (P08173 whole entry): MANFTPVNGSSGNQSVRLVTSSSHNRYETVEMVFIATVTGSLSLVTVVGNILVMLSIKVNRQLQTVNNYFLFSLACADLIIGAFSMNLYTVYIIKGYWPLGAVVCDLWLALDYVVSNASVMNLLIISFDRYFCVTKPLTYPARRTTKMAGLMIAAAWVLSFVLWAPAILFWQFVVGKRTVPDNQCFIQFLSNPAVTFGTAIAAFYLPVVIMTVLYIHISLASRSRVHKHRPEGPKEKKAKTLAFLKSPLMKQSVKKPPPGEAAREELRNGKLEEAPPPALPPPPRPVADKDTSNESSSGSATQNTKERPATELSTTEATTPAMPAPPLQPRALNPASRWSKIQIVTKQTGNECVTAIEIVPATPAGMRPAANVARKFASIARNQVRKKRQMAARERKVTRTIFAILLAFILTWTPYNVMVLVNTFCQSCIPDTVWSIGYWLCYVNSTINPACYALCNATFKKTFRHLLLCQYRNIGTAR

[19] = target: Histamine H1 receptor (Homo sapiens, UniProt P35367); experiment: Affinity towards cloned Histamine H1 receptor
Sequence of Histamine H1 receptor (P35367 whole entry): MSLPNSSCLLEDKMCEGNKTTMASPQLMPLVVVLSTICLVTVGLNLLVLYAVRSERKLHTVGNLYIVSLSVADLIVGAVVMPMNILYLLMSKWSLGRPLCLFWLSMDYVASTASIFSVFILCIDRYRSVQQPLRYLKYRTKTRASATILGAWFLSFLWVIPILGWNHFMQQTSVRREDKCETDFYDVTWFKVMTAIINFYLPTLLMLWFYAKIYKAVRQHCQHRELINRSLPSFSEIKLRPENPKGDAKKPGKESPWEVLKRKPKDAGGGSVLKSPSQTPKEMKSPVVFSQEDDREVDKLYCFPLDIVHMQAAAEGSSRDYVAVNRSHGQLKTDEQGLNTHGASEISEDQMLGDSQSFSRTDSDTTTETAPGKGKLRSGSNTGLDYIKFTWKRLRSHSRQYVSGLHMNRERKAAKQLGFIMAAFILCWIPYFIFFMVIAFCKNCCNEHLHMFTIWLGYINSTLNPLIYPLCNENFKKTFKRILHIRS

[20] = target: Kappa-type opioid receptor (Homo sapiens, UniProt P41145); experiment: Affinity towards cloned Opioid receptor kappa 1
Sequence of Kappa-type opioid receptor (P41145 whole entry): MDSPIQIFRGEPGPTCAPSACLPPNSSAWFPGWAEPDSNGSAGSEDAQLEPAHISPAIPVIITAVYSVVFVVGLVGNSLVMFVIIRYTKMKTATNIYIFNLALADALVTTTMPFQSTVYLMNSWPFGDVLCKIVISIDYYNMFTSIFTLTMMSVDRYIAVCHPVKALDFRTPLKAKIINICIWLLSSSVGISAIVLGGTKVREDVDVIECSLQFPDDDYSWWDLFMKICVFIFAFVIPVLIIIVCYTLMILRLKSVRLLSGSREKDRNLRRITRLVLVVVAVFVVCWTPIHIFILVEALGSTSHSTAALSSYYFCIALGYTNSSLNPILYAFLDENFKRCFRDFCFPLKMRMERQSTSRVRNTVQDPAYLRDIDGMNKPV

[21] = target: T6, D(4) dopamine receptor (Homo sapiens, UniProt P21917); experiment: Affinity towards cloned Dopamine receptor D4
T6 sequence (P21917 whole entry): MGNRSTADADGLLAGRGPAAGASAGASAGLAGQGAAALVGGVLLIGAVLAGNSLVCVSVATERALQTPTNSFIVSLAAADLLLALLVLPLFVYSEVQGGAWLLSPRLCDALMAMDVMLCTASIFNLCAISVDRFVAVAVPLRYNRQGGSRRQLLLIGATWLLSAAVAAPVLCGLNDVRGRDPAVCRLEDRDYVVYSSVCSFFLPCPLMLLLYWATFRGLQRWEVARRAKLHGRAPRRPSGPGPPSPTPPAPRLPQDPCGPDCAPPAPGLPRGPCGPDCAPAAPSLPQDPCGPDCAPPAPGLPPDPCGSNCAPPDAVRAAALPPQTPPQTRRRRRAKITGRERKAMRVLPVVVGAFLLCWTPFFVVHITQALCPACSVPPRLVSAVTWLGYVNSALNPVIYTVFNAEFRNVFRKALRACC

Sequence of D(2) dopamine receptor (P14416 whole entry): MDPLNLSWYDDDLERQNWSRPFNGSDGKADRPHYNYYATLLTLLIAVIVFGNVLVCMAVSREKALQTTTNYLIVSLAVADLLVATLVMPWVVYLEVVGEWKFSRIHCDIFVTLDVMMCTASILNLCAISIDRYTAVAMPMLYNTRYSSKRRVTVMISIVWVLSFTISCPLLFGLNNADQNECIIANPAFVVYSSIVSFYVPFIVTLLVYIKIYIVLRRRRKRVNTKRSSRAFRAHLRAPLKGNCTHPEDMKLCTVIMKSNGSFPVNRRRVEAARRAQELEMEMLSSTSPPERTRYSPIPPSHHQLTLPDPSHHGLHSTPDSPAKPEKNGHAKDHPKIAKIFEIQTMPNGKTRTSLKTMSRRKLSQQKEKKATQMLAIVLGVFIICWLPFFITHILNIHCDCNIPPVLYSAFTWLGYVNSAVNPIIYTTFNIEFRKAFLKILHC
Sequence of D(1A) dopamine receptor (P21728 whole entry): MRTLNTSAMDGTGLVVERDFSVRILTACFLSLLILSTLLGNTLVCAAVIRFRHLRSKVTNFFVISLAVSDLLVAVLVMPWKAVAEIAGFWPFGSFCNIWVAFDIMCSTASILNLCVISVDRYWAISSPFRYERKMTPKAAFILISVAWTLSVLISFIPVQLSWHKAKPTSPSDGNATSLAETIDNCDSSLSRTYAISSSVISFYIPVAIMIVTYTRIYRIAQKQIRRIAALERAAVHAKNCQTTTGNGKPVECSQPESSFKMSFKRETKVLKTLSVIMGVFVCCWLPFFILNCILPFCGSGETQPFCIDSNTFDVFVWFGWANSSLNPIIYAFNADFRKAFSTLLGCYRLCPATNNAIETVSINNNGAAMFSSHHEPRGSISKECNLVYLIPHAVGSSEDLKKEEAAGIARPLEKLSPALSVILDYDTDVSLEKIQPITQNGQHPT

A Ki [1] greater than 10 µM, a Ki [2] greater than 10 µM and a Ki [3] greater than 10 µM were found for `COc1ccc(NC(=O)N2CCN(c3ccccc3OC)CC2)cc1N1CCN(C)CC1` in this work. It also gave a Ki [4] of 1.41 µM, a Ki [5] greater than 10 µM and a Ki [6] greater than 10 µM. The Ki [7] was greater than 10 µM, the Ki [8] was greater than 10 µM and the Ki [9] was 6.74 µM. For the same compound, the Ki [10] was greater than 10 µM, the Ki [11] was 0.0124 µM and the Ki [12] was greater than 10 µM. It also gave a Ki [13] greater than 10 µM, a Ki [14] of 2.41 µM and a Ki [15] greater than 10 µM. It also gave a Ki [16] of 0.106 µM, a Ki [17] of 1.94 µM and a Ki [18] greater than 10 µM. The Ki [19] was greater than 10 µM, the Ki [20] was greater than 10 µM and the Ki [21] was greater than 10 µM.

— ChEMBL document CHEMBL1143467, “Synthesis of potent and selective serotonin 5-HT1B receptor ligands” (Bioorg Med Chem Lett, 2005)
